This is an account of results in US20100278853A1, “C[…] V3 LOOP PEPTIDES AS NOVEL IMMUNOGENS AND RECEPTOR ANTAGONISTS” (YEDA RESEARCH AND DEVELOPMENT CO., LTD., priority 2003, published 2010).

In one experiment the target is 447Fv. Kind of experiment: Fluorescence quenching of 447Fv upon titration with the peptide. Details: species or system human. The note with it: read-out: dissociation constant / binding affinity for 447Fv. The method, then:
The R5A-M1 peptide binds 447Fv with a dissociation constant of 10 nM as determined by fluorescence quenching of 447F upon titration with the peptide, so is within one order of magnitude of the binding affinity of the V3 peptide (˜1 nM).

A further experiment concerns 447. Kind of experiment: Binding affinity of V3 peptides to mAb 447 (method not described). Further details: species or system human. The note with it: relative to affinity of 447 for V3MN peptide.
Experiment [1] relates to R5 and X4 tropic virus strains. The settings on record: against both R5 and X4 tropic virus strains; cited from earlier work.

Consider CRKSIHC—GPGRCFYTTGC [R5A-M1], for which, on 447Fv, the Kd came to 10 nM. Consider “TRKSIRIQRGPGRAFVTIGK [V3IIIB, 310-329 gp120IIIB V3 loop peptide expressed in E. coli]”, for which, in the experiment with 447, the “association constant with 447 compared with the corresponding V3MN peptide” value is given as “one order of magnitude lower”.

As to “α-defensin: low molecular weight granulocyte protein, pdb code 1dfn”, the anti-HIV activity result in experiment [1] is on record as “anti-HIV activity”.
